ChEMBL document CHEMBL4507304, “Data for DCP probe TP-021” (2021)

Tests used:
[1] = target: BMP-2-inducible protein kinase (Homo sapiens) (UniProt Q9NSY1); conditions: Compound concentration 1000.0 nM
[2] = target: Calcium/calmodulin-dependent protein kinase type IV (Homo sapiens) (UniProt Q16566); conditions: Compound concentration 1000.0 nM
[3] = target: Rhodopsin kinase GRK7 (Homo sapiens) (UniProt Q8WTQ7); conditions: Compound concentration 1000.0 nM
[4] = target: Inhibitor of nuclear factor kappa-B kinase subunit epsilon (Homo sapiens) (UniProt Q14164); conditions: Compound concentration 1000.0 nM
Sequence of Inhibitor of nuclear factor kappa-B kinase subunit epsilon (Homo sapiens) (Q14164 whole entry): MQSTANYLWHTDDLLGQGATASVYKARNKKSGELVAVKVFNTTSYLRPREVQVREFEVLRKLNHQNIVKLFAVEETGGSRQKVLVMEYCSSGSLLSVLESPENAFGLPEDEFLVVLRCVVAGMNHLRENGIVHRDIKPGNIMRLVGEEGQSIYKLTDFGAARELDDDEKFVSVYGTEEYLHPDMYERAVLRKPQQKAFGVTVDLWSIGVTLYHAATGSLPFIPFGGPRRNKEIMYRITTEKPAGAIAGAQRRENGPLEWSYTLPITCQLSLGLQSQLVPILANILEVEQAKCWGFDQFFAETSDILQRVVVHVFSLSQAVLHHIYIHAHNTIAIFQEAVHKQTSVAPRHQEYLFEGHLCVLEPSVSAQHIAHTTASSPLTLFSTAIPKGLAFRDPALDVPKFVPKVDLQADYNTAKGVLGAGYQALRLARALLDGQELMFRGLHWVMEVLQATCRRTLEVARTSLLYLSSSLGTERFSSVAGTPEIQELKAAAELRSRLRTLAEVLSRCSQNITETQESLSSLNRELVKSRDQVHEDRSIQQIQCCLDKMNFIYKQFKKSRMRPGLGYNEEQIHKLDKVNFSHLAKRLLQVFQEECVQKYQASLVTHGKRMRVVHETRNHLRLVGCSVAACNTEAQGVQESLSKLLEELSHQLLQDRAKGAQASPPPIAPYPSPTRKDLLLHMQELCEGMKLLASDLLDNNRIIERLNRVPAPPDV

[5] = target: Mast/stem cell growth factor receptor Kit (Homo sapiens) (UniProt P10721); conditions: Compound concentration 1000.0 nM
Sequence of Mast/stem cell growth factor receptor Kit (Homo sapiens) (P10721 whole entry): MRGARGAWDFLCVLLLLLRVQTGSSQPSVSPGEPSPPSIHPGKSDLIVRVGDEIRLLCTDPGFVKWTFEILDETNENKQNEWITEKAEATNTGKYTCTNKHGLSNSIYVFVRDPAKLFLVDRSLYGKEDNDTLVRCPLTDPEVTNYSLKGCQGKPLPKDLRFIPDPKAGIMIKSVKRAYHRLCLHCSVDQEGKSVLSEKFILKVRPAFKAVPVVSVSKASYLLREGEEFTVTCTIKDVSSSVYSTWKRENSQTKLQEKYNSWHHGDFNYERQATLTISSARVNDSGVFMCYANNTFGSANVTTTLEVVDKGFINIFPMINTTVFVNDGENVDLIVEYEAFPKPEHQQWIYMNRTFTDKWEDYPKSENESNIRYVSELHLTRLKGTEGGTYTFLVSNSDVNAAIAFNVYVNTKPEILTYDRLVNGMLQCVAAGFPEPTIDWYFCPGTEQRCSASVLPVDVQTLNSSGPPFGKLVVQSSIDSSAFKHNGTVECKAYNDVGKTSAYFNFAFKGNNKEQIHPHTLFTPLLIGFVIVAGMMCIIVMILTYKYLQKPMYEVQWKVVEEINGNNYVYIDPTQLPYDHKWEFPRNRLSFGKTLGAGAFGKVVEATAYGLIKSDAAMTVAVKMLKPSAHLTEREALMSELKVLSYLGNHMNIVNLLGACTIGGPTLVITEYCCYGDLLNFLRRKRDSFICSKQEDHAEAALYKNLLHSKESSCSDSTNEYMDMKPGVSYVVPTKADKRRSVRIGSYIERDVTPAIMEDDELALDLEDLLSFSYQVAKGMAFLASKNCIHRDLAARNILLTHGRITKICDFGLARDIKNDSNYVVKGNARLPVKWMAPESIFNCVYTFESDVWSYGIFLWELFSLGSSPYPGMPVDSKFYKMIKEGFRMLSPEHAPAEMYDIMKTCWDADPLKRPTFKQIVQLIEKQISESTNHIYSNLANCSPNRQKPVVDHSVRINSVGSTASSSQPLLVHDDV

[6] = target: Serine/threonine-protein kinase 38-like (Homo sapiens) (UniProt Q9Y2H1); conditions: Compound concentration 1000.0 nM
[7] = target: Mitogen-activated protein kinase kinase kinase 14 (Homo sapiens) (UniProt Q99558); conditions: Compound concentration 1000.0 nM
[8] = target: Mitogen-activated protein kinase 14 (Homo sapiens) (UniProt Q16539); conditions: Compound concentration 1000.0 nM
Sequence of Mitogen-activated protein kinase 14 (Homo sapiens) (Q16539 whole entry): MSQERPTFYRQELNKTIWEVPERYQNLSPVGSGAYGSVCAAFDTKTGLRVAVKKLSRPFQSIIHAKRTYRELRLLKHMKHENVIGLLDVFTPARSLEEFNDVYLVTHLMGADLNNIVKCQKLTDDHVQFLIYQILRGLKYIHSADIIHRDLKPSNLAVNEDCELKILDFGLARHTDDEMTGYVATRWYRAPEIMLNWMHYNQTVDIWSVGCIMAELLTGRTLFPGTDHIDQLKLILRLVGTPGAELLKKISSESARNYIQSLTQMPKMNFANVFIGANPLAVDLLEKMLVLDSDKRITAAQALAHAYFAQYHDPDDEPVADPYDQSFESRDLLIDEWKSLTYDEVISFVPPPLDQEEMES

[9] = target: Cyclin-dependent kinase 14 (Homo sapiens) (UniProt O94921); conditions: Compound concentration 1000.0 nM
Sequence of Cyclin-dependent kinase 14 (Homo sapiens) (O94921 whole entry): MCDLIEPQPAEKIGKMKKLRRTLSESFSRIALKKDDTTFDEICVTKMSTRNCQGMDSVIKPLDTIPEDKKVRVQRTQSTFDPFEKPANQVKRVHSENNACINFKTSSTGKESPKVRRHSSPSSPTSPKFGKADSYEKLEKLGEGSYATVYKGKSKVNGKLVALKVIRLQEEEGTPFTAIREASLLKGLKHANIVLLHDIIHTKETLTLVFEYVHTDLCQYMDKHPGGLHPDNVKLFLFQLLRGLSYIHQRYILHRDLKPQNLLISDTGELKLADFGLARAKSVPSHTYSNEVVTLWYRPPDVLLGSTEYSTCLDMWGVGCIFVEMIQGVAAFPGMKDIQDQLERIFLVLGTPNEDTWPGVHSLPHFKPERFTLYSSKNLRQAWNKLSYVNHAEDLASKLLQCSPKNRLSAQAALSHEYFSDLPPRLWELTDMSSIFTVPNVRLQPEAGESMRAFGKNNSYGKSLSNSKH

[10] = target: Interferon-induced, double-stranded RNA-activated protein kinase (Homo sapiens) (UniProt P19525); conditions: Compound concentration 1000.0 nM
[11] = target: Testis-specific serine/threonine-protein kinase 3 (Homo sapiens) (UniProt Q96PN8); conditions: Compound concentration 1000.0 nM
Sequence of Testis-specific serine/threonine-protein kinase 3 (Homo sapiens) (Q96PN8 whole entry): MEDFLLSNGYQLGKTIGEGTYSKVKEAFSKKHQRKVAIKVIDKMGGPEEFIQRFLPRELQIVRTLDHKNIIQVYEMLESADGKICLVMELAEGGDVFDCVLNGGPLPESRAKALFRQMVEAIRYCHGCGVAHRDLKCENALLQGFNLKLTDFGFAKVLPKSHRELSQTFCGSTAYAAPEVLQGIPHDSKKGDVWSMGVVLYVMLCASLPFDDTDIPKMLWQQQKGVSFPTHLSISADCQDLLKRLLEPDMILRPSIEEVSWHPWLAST

[12] = target: Tyrosine-protein kinase Yes (Homo sapiens) (UniProt P07947); conditions: Compound concentration 1000.0 nM
Sequence of Tyrosine-protein kinase Yes (Homo sapiens) (P07947 2-543 limits assumed): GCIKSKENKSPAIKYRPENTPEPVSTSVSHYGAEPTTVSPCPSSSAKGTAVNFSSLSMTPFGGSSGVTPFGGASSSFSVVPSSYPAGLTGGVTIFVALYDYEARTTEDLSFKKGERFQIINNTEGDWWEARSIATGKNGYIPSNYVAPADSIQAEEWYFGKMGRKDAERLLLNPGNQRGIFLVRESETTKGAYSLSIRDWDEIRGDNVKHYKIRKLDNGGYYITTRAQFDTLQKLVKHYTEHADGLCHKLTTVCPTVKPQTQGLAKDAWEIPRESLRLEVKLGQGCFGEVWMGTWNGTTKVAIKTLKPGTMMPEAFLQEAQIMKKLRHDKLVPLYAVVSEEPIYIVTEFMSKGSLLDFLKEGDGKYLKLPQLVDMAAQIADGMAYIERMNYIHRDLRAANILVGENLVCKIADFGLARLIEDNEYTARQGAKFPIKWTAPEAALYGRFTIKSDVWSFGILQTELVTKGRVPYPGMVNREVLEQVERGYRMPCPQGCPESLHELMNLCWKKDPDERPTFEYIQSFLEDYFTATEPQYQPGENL

[13] = target: 5-hydroxytryptamine receptor 2C (Homo sapiens) (UniProt P28335); conditions: Compound concentration 10.0 uM
[14] = target: Serine/threonine-protein kinase Nek3 (Homo sapiens) (UniProt P51956); conditions: Compound concentration 1000.0 nM
[15] = target: Phosphatidylinositol 4,5-bisphosphate 3-kinase catalytic subunit delta isoform (Homo sapiens) (UniProt O00329); conditions: Compound concentration 1000.0 nM
[16] = target: D(2) dopamine receptor (Homo sapiens) (UniProt P14416); conditions: Compound concentration 10.0 uM
[17] = target: D(1B) dopamine receptor (Homo sapiens) (UniProt P21918); conditions: Compound concentration 10.0 uM
[18] = target: Alpha-1A adrenergic receptor (Homo sapiens) (UniProt P35348); conditions: Compound concentration 10.0 uM
[19] = target: Beta-3 adrenergic receptor (Homo sapiens) (UniProt P13945); conditions: Compound concentration 10.0 uM

Sequence of Calcium/calmodulin-dependent protein kinase type IV (Homo sapiens) (Q16566 whole entry): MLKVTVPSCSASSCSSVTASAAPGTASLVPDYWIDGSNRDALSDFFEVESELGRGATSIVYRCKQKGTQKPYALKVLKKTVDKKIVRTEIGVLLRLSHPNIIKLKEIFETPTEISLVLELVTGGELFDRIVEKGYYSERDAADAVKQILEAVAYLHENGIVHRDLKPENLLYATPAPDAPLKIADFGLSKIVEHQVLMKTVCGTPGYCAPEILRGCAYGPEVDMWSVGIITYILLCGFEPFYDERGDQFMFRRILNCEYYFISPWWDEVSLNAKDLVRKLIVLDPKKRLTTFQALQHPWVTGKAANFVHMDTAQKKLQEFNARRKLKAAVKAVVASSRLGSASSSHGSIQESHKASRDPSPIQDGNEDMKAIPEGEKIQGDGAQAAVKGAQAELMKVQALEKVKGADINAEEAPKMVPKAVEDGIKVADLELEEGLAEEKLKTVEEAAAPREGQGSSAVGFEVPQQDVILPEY
Sequence of BMP-2-inducible protein kinase (Homo sapiens) (Q9NSY1 whole entry, looked up): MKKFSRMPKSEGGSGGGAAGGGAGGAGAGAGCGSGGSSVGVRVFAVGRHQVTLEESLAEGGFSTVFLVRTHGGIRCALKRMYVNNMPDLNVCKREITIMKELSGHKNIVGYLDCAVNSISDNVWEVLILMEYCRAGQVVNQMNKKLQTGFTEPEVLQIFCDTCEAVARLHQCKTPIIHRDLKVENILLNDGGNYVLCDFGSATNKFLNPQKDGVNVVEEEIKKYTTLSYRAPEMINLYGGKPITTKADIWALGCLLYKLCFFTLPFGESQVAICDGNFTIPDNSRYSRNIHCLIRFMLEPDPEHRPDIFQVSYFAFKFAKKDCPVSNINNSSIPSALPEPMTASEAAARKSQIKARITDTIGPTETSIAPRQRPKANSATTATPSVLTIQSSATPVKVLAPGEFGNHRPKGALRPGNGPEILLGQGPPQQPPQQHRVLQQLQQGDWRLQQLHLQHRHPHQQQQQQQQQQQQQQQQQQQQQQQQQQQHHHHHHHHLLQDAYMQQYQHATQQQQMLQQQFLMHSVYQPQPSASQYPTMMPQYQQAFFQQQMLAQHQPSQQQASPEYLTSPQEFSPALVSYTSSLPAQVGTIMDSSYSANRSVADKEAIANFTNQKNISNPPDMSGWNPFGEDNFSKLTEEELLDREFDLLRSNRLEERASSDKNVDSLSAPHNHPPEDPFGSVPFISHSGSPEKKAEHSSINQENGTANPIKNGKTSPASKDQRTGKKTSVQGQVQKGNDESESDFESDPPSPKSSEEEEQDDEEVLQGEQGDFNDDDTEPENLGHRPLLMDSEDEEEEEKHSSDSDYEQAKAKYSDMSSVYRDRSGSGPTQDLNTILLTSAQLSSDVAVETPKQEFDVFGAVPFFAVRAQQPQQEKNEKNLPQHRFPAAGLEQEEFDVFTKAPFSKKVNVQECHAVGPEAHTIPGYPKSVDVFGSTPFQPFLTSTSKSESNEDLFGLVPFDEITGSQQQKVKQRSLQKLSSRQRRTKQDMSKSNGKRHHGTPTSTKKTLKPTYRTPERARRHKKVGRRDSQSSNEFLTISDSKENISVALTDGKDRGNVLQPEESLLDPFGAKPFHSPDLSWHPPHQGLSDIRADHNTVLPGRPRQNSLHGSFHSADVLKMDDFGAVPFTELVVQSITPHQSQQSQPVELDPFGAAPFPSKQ

N#Cc1ccc(Nc2ccc3[nH]c(=O)[nH]c3c2)c(Cl)c1
inactive: residual activity [1] 91% | residual activity [2] 100% | residual activity [3] 100% | residual activity [4] 100% | residual activity [5] 100% | residual activity [6] 53% | residual activity [7] 100% | residual activity [8] 93% | residual activity [9] 100% | residual activity [10] 57% | residual activity [11] 100% | residual activity [12] 100% | inhibition [13] -9.96%

O=C1CCc2cc(Nc3cc(OC4CCOCC4)c([N+](=O)[O-])cc3Cl)ccc2N1
inactive: residual activity [1] 100% | residual activity [2] 100% | residual activity [3] 100% | residual activity [4] 90% | residual activity [5] 99% | residual activity [14] 100% | residual activity [7] 81% | residual activity [8] 100% | residual activity [9] 100% | residual activity [15] 94% | residual activity [11] 100% | residual activity [12] 96% | inhibition [16] 2.86% | inhibition [17] 13% | inhibition [18] -8.76% | inhibition [19] 7.73%
